What was measured:
[1] = system: HCT116 TP53-knockout (TP53KO) cell line; experiment: MTT viability assay, HCT116 TP53-knockout, 96 h; assay type: cell-based, human
Protocol: (§1) removed and 100 µL DMSO was added to dissolve the formazan crystals. Photometric quantification was performed at 570 nm with a Multiskan Go 1510 photometer (Thermo Fisher […]
(§2) The absorbances were blank corrected and converted to relative proliferation. The IC50 values (concentration of 50% growth inhibition) were obtained using a sigmoidal fit of the experimental data and calculated as the mean ± standard deviation of at least three independent experiments, each in at least triplicates.
(§3) HCT116, HCT116 p53KO (each 2.000 cells/well) and CT-26 cells (500 cells/well) were seeded in 100 µL/well into flat-bottom 96-well plates (Starlab) and incubated at 37 °C for 96 h in a humidified incubator (Binder CB210) at 5% CO2. The test compound was dissolved in DMSO, serially diluted in the appropriate cell culture medium (see section above) to final DMSO concentrations of ≤0.5% v/v and 100 µL aliquots added to wells in triplicates. […] Optical densities were measured with a microplate reader (ELx808, Biotek) at a wavelength of 550 nm (and a reference wavelength of 690 nm) and blank corrected. […]
(§4) (each 3.000 cells/well) were seeded in 100 µL/well into flat-bottom 96-well plates (Starlab) and incubated at 37 °C for 24 h in a humidified incubator (Binder CB210) at 5% CO2. […] After 24 h of treatment, plates were measured by MTT assay as described above. […]

[2] = Reactivity by NMR with 9-ethylguanine and methionine or cysteine; assay type: physicochemical; conditions: 1 mM, equimolar nucleophiles, D2O/20% DMSO, up to 24 h
Protocol: Nevertheless, they are activated by hydrolysis of the most labile M–O bond (Fig. 2C).[48] Further hydrolysis releases the NQ ligand, because the free hemiaminal-containing NQ is unstable and the presence of biological nucleophiles accelerated NQ release.[48] […] The samples were analysed on a 500 MHz NMR spectrometer after 0 h, 1.5 h and 24 h. […] The aromatic proton of 9-ethylguanine was consistently found at 7.6 ppm.

[3] = system: murine CT26 colon carcinoma cells; experiment: MTT viability assay, CT26, 96 h; assay type: cell-based; conditions: wildtype TP53
Protocol: as §1, §2, §3, §4

SW480 cancer cells = experiment: Cell cycle analysis by flow cytometry (propidium iodide); assay type: cell-based, human; conditions: 24 h; 1a 12.5 to 50 nM; gemcitabine 10 nM
[4] = Tissue and plasma proteome profiling of 1a-treated CT26-bearing mice; assay type: in vivo, BALB/c mice; conditions: 10 mg kg^−1, five days
Source text: On day five, tumour, liver and blood were harvested two hours after the last injection of 1a. Blood plasma and livers were harvested to obtain insight into systemic drug effects and tumours were collected to obtain information about local effects of the candidate drug.
For proteomic workup, the fresh tissue samples were quickly rinsed with PBS and shock-frozen in liquid nitrogen. Blood plasma was immediately prepared by centrifugation of the collected blood in ethylenediaminetetraacetic acid (EDTA) tubes. The samples were analysed in technical duplicates due to the expected larger heterogeneity and statistical evaluation was performed using the LIMMA algorithm[73] and gene set variation analysis (GSVA).[74] […] Statistical significance was calculated based on multi-parameter testing-adjusted P-values […].
Animals. All experiments were carried out with male Balb/c mice according to the regulation of the Ethics Committee for the Care and Use of Laboratory Animals at the Medical University Vienna (BMWF-2022-0.770.291), the guidelines from the Austrian Animal Science Association and the Federation of European Laboratory Animal Science Associations (FELASA). The animals were kept in a pathogen-free conditions, controlled environment with 12 h light–dark cycle with ad libitum access to food and water. Every procedure was done in a laminar airflow […]
Treatment. CT-26 cells ([…] in 50 μL serum-free medium) were injected subcutaneously (s.c.) into the right flank of ten– to eleven-week-old male Balb/c mice. Three days after cell injection, all compounds (dissolved in 10% DMSO in water) were administered […]
In case of the proteomic profiling […]
in water for 5 consecutive days. On the last day, 2 h after the last treatment, mice were euthanized, and blood was collected in an EDTA tube via heart punctation. Tumours and livers were harvested, quickly rinsed with PBS and snap-frozen in liquid nitrogen. Blood plasma was obtained by centrifugation (2×10 min at 900 g). […]
Sample Processing. All steps were performed on ice. The frozen tissue samples (weights ranging from 8.6– 51.5 mg) were transferred to 15 mL Falcon tubes containing 150 µL sodium deoxycholate lysis buffer (SDC; 0.4 g SDC, 500 μL Tris∙HCl (pH 8.8) in 9.5 mL H2O) and homogenized with a sonication probe (Bandelin Sonoplus HD 2070; Bandelin Electronic GmbH & Co. KG, Berlin, Germany). After sonication the homogenates were centrifuged at 10.000 g for 5 minutes and the resulting supernatant was transferred to new reaction tubes. […]
EDTA-anticoagulated plasma samples were diluted in SDC buffer at a ratio of 1 : 20, heated at 95 °C for 5 min and stored at –20 °C. The protein concentration of each sample was determined using a BCA assay. […]

In the case of `CCC1=C2[O][Ru][O]C2(n2cccn2)c2ccccc2C1=O.Cc1ccc(C(C)C)cc1` (centres unmarked) [Compound 1a, [(3-ethyl-4-oxo-(pyrazolyl)-dihydronaphthalene)(cymene)ruthenium(II)]], the IC50 [1] is reported as 0.26 ± 0.01 µM, the “stability by NMR” value [2] is reported as “remained remarkably stable” and the IC50 [3] is reported as 0.8 ± 0.15 µM. The cell cycle distribution (SW480 cancer cells) was “dose-dependent increase in the S and G2/M phases”, the “EGFR level in tumour” value [4] was “down-regulated” and the “statistically significant regulations, plasma” value ([4]; of 285 identified) was 79. The “statistically significantly regulated proteins, liver” value ([4]; of 2770 identified) was 14 and the “statistically significant regulations, tumour” value ([4]; of 3867 identified) was 5.

From article PMC12320299 (Chemical Science, 2025)
